Measured values as given in US20070122341A1, “Benzylideneaniline derivatives and their radioisotope labeled compounds for binding and imaging of beta-amyloid plaques” (SEOUL NATIONAL UNIVERSITY INDUSTRY FOUNDATION, priority 2005, published 2007).
“And” between values parts separate entries of the source, which are not always exact repeats. Equal entries are not always repeated.

Tests used:
Aβ1-40 aggregates = biological target: T1, Aβ1-40 aggregates (Homo sapiens, UniProt P05067); assay: In vitro binding assay with Aβ1-40 aggregates, inhibition of [125I]3'-I-BTA-1 binding; settings: for affinity to Aβ1-40 (in words): conclusion from Ki values of Table 2; for Ki: unlabeled compounds, Aβ1-40 aggregates 20 nM, [125I]3'-I-BTA-1 0.04 nM, 3 hr room temperature, Ki calculated from IC50
T1 construct: purchased Sigma
T1 sequence (P05067 672-711): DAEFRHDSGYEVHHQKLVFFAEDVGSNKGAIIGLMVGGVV
Description: Aggregated peptides were prepared using the solid form of peptides Aβ1-40 (purchased from Sigma) by a literature method (Klunk, W. E.; Wang, Y.; Huang, G-F.; Debnath, M. L.; Holt D. P.; Mathis, C. A. Uncharged thioflavin-T derivatives bind to amyloid-beta protein with high affinity and readily enter the brain. Life Sci. 2001, 69(13), […]). The aggregated Aβ1-40 peptide was aliquoted and stored at −70° C. Binding studies were performed according to the procedure described in the literature with some modifications (Zhuang, Z.-P.; Kung, M.-P.; Wilson, A.; Lee, C.-W.; Plossl, K.; Hou, C.; Holtzman, D. M.; Kung, H. F.; Structure-activity relationship of imidazo[1,2-a]pyridines as ligands for detecting β-amyloid plaques in the brain. J. Med. Chem. 2003; 46(2), 237-243). The Ki values of benzylideneaniline derivatives were evaluated with Aβ1-40 aggregates.
The reaction mixtures containing 100 μL of Aβ^1-40 aggregates (20 nM in the final mixture), 100 μL of benzylideneaniline derivatives (10^−5-10^−10 M in 50% ethanol), 100 μL of [^125I]3′-I-BTA-1 in 50% ethanol (0.04 nM in the final mixture), and 700 μL of phosphate buffered saline (pH=7.2) were incubated for 3 hr at room temperature, filtered through Whatman GF/B glass filters and washed twice with 3 mL of 10% EtOH. The filters were counted in a gamma-counter. Nonspecific binding was determined by reacting in the presence of 10 μM stilbene.

[1] = Biodistribution in normal mice; format: in vivo; settings: 18F-labeled compounds, tail vein injection, ICR male mice; ratio of brain uptake (% ID/g) at 2 min over 30 min
Description: Biodistribution study of the ^18F-labeled compounds of Example 7 was performed with ICR male mice (weight range 27-28 g). 0.1 mL of a saline solution containing each ^18F-labeled benzylideneaniline compound A, B, C, D, E or F (37-74 kBq) was injected through the tail vein. The mice were sacrificed by decapitation at 2 min and 30 min time points post injection. The organs of interest, including blood, muscle, fat, heart, lung, liver, spleen, stomach, intestine, brain and bone, were separated and weighed, and the remaining radioactivity was counted with a NaI well counter.

Row | SMILES | melting point [°C] | affinity to Aβ1-40 (in words) (Aβ1-40 aggregates) | Ki (Aβ1-40 aggregates) [nM] | Brain uptake ratio [1]
1 | CNc1ccc(/N=C/c2ccc(F)cc2)cc1 [B, N-(4-fluorobenzylidene)-N′-methylbenzene-1,4-diamine] | 106 to 107 | have affinity to Aβ1-40 | 1040 | 5.4 ± 0.5
2 | Oc1ccc(/N=C/c2ccc(F)cc2)cc1 [D] | 148 to 149 | low binging affinity | > 10000 | 24.3 and 24.3 ± 4.6
3 | COc1ccc(/N=C/c2ccc(F)cc2)cc1 [E, (4-fluorobenzylidene)-(4-methoxyphenyl)amine] | 92 to 93 |  | > 10000 | 4.2 ± 0.9
4 | O=C(O)c1cc(/N=C/c2ccc(F)cc2)ccc1O [F, 5-[(4-fluorobenzylidene)amino]-2-hydroxybenzoic acid] |  |  | > 10000 | 11.0 ± 2.0

Molecules with a lower Ki (Aβ1-40 aggregates), results first:

Row | melting point [°C] | affinity to Aβ1-40 (in words) (Aβ1-40 aggregates) | Ki (Aβ1-40 aggregates) [nM] | Brain uptake ratio [1] | SMILES
5 | 191 to 192 | have affinity to Aβ1-40 | 149 | 2.9 ± 0.5 | CN(C)c1ccc(/N=C/c2ccc(F)cc2)cc1 [C, N-(4-fluorobenzylidene)-N′,N′-dimethylbenzene-1,4-diamine]
6 | 169 to 170 | have affinity to Aβ1-40 | 304 | 8.7 ± 1.7 | Nc1ccc(/N=C/c2ccc(F)cc2)cc1 [Compound A, N-(4-fluorobenzylidene)benzene-1,4-diamine]
